This experiment relates to CD2F1 mice, L1210 leukemia ip, survival T/C. The experiment is described as follows: NCI In Vivo Anticancer Drug Screen. Data for tumor model L1210 Leukemia (intraperitoneal) in CD2F1 (CDF1) mice. The settings on record: higher = longer survival. The procedure, abridged:
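Ratio T/C, where T is the treated-group value and C the vehicle-dosed control value, from mice implanted with a transplantable tumor.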

The mark [1] stands for this setting: endpoint: mean survival time, dose: 100.0 mg/kg/injection, schedule: Q01DX009 (ip), vehicle: saline with Tween-80.
The mark [2] stands for this setting: endpoint: mean survival time, dose: 100.0 mg/kg/injection, schedule: Q04DX003 (ip), vehicle: saline with Tween-80.
The mark [3] stands for this setting: endpoint: mean survival time, dose: 200.0 mg/kg/injection, schedule: Q01DX009 (ip), vehicle: saline with Tween-80.
Where [4] appears, read: endpoint: mean survival time, dose: 200.0 mg/kg/injection, schedule: Q04DX003 (ip), vehicle: saline with Tween-80.
[5] abbreviates: endpoint: mean survival time, dose: 400.0 mg/kg/injection, schedule: Q01DX009 (ip), vehicle: saline with Tween-80.
Setting [6] is: endpoint: mean survival time, dose: 400.0 mg/kg/injection, schedule: Q04DX003 (ip), vehicle: saline with Tween-80.
Where [7] appears, read: endpoint: mean survival time, dose: 100.0 mg/kg/injection, schedule: Q01DX001 (ip), vehicle: saline with Tween-80.
The mark [8] stands for this setting: endpoint: mean survival time, dose: 200.0 mg/kg/injection, schedule: Q01DX001 (ip), vehicle: saline with Tween-80.
[9] abbreviates: endpoint: mean survival time, dose: 400.0 mg/kg/injection, schedule: Q01DX001 (ip), vehicle: saline with Tween-80.
The mark [10] stands for this setting: endpoint: mean survival time, dose: 100.0 mg/kg/injection, schedule: Q01DX001 (ip), vehicle: saline.
Setting [11] is: endpoint: mean survival time, dose: 200.0 mg/kg/injection, schedule: Q01DX001 (ip), vehicle: saline.
[12] abbreviates: endpoint: mean survival time, dose: 400.0 mg/kg/injection, schedule: Q01DX001 (ip), vehicle: saline.
[13] abbreviates: endpoint: mean survival time, dose: 100.0 mg/kg/injection, schedule: Q04DX002 (ip), vehicle: saline with Tween-80.
The mark [14] stands for this setting: endpoint: mean survival time, dose: 200.0 mg/kg/injection, schedule: Q04DX002 (ip), vehicle: saline with Tween-80.
Setting [15] is: endpoint: mean survival time, dose: 400.0 mg/kg/injection, schedule: Q04DX002 (ip), vehicle: saline with Tween-80.

Values joined by “and” are separate entries in the source; they are usually repeats but may differ in a detail not shown here. Equal values may be shown once. Toxic doses and inconclusive results are not listed.

`O=C(NC(Cc1c[nH]c2ccccc12)C(=O)O)c1ccccc1` (stereo not drawn): the T/C reads like this: under setting [1], 108 % of control; under setting [2], 109 % of control; under setting [3], 100 % of control; under setting [4], 98 % of control; under setting [5], 104 % of control; under setting [6], 103 % of control. Moreover, under “endpoint: mean survival time, dose: 600.0 mg/kg/injection, schedule: Q01DX009 (ip), vehicle: saline with Tween-80”, the T/C is 108 % of control.

Take `Nc1nc2c(ncn2-c2cccc(C(F)(F)F)c2)c(=O)[nH]1`: the T/C reads like this: under setting [2], 94 % of control; under setting [4], 89 % of control; under setting [6], 92 % of control.

Regarding `Cc1cn(C2CC(OP(=O)(O)OCC3OC(n4cc(C)c(=O)[nH]c4=O)CC3OP(=O)(O)OCC3OC(n4cc(C)c(=O)[nH]c4=O)CC3OP(=O)(O)OCC3OC(n4cc(C)c(=O)[nH]c4=O)CC3OP(=O)(O)OCC3OC(n4ccc(N)nc4=O)C(O)C3O)C(CO)O2)c(=O)[nH]c1=O` (stereo not drawn), the T/C is 111 % of control (endpoint: median survival time, dose: 25.0 mg/kg/injection, schedule: Q01DX005 (ip), vehicle: saline); 114 % of control (endpoint: median survival time, dose: 50.0 mg/kg/injection, schedule: Q01DX005 (ip), vehicle: saline); 124 % of control (endpoint: median survival time, dose: 100.0 mg/kg/injection, schedule: Q01DX005 (ip), vehicle: saline).

Regarding `OC(c1ccccc1)(c1ccccc1)c1ccccc1`, the T/C reads like this: under setting [2], 101 % of control; under setting [4], 98 % of control; under setting [6], 98 % of control.

In the case of `Cc1ccc(C(=O)/C=C/c2ccccc2)cc1`, the T/C runs as follows: (endpoint: mean survival time, dose: 25.0 mg/kg/injection, schedule: Q01DX009 (ip), vehicle: Klucel (hydroxypropylcellulose) (HPC)) 86 % of control; (endpoint: mean survival time, dose: 50.0 mg/kg/injection, schedule: Q01DX009 (ip), vehicle: Klucel (hydroxypropylcellulose) (HPC)) 88 % of control; under setting [7], 108 % of control; (endpoint: mean survival time, dose: 100.0 mg/kg/injection, schedule: Q01DX009 (ip), vehicle: Klucel (hydroxypropylcellulose) (HPC)) 86 % of control; under setting [8], 100 % of control; (endpoint: mean survival time, dose: 200.0 mg/kg/injection, schedule: Q01DX009 (ip), vehicle: Klucel (hydroxypropylcellulose) (HPC)) 86 % of control. The T/C under setting [9] is 100 % of control.

Regarding `Oc1ccc(CCCl)cc1`, the T/C (endpoint: mean survival time, dose: 50.0 mg/kg/injection, schedule: Q01DX009 (ip), vehicle: saline with Tween-80) was 91 % of control; the T/C under setting [1] is 102 % of control; the T/C under setting [3] is 102 % of control.

`S=c1sc2ccccc2n1CN1CCOCC1`: the T/C (endpoint: median survival time, dose: 12.5 mg/kg/injection, schedule: Q01DX009 (ip), vehicle: saline with Tween-80) is 97 % of control and 104 % of control; the T/C (endpoint: median survival time, dose: 25.0 mg/kg/injection, schedule: Q01DX009 (ip), vehicle: saline with Tween-80) was 100 % of control; the T/C (endpoint: median survival time, dose: 50.0 mg/kg/injection, schedule: Q01DX009 (ip), vehicle: saline with Tween-80) was 101 % of control and 106 % of control; the T/C (endpoint: median survival time, dose: 100.0 mg/kg/injection, schedule: Q01DX009 (ip), vehicle: saline with Tween-80) is 101 % of control and 108 % of control; the T/C (endpoint: median survival time, dose: 200.0 mg/kg/injection, schedule: Q01DX009 (ip), vehicle: saline with Tween-80) was 98 % of control and 100 % of control.

As to `Cc1ccc(S(=O)(=O)OCCCCCOS(=O)(=O)c2ccc(C)cc2)cc1`, the T/C under setting [1] is 100 % of control; the T/C under setting [2] is 100 % of control; the T/C under setting [3] was 100 % of control; the T/C under setting [4] is 100 % of control; the T/C under setting [5] is 100 % of control; the T/C under setting [6] was 97 % of control.

On to `O=P1(C(Cl)Cl)OCCCCO1`, for which the T/C was 102 % of control under setting [10], 102 % of control under setting [11] and 105 % of control under setting [12].

In the case of `O=C(O)C1CCOC1=O` (stereo not drawn), the T/C was 107 % of control (endpoint: mean survival time, dose: 50.0 mg/kg/injection, schedule: Q04DX002 (ip), vehicle: saline); 98 % of control (endpoint: mean survival time, dose: 100.0 mg/kg/injection, schedule: Q04DX002 (ip), vehicle: saline); 98 % of control (endpoint: mean survival time, dose: 200.0 mg/kg/injection, schedule: Q04DX002 (ip), vehicle: saline).

Consider `O=C(CC(c1ccc(Cl)cc1)P(=O)(c1ccccc1)c1ccccc1)c1ccccc1` (stereo not drawn), for which the T/C was 90 % of control under setting [1], 98 % of control under setting [3] and 97 % of control under setting [5].

Consider `COc1ccccc1NC(=O)Oc1cccc(OC(=O)c2ccccc2)c1`, for which the T/C was 96 % of control under setting [13], 103 % of control under setting [14] and 88 % of control under setting [15].

For the molecule `OC1(C2(O)CCCC2)CCCC1`, the T/C was 105 % of control under setting [1], 111 % of control under setting [3] and 103 % of control under setting [5].

Regarding `O=c1[nH]c(=O)n(CCCCOc2ccccc2)cc1-c1ccccc1`, the T/C was 98 % of control under setting [7], 101 % of control under setting [8] and 96 % of control under setting [9].

In the case of `CC(=O)Nc1c(C#N)c(C#N)nn1C`, the T/C (endpoint: mean survival time, dose: 50.0 mg/kg/injection, schedule: Q04DX002 (ip), vehicle: saline with Tween-80) was 98 % of control; the T/C under setting [13] was 106 % of control; the T/C under setting [14] is 102 % of control.

Regarding `COC(=O)C1N=C1c1ccccc1.COC(=O)C1N=C1c1ccccc1.[Cl][Pd][Cl]` (stereo not drawn), the T/C by setting is: (endpoint: mean survival time, dose: 3.13 mg/kg/injection, schedule: Q04DX003 (ip), vehicle: distilled water + Tween-80) 95 % of control; (endpoint: mean survival time, dose: 6.25 mg/kg/injection, schedule: Q04DX003 (ip), vehicle: distilled water + Tween-80) 103 % of control; (endpoint: mean survival time, dose: 12.5 mg/kg/injection, schedule: Q04DX003 (ip), vehicle: distilled water + Tween-80) 91 % of control; (endpoint: mean survival time, dose: 25.0 mg/kg/injection, schedule: Q04DX003 (ip), vehicle: distilled water + Tween-80) 103 % of control; (endpoint: mean survival time, dose: 50.0 mg/kg/injection, schedule: Q04DX003 (ip), vehicle: distilled water + Tween-80) 101 % of control; (endpoint: mean survival time, dose: 100.0 mg/kg/injection, schedule: Q04DX003 (ip), vehicle: distilled water + Tween-80) 101 % of control. The T/C (endpoint: mean survival time, dose: 200.0 mg/kg/injection, schedule: Q04DX003 (ip), vehicle: distilled water + Tween-80) is 103 % of control.

As to `Cn1cnc([N+](=O)[O-])c1[Se]c1nc(N)nc2c1ncn2C1OC(CO)C(O)C1O` (stereo not drawn), the T/C (endpoint: mean survival time, dose: 2.0 mg/kg/injection, schedule: Q01DX009 (ip), vehicle: distilled water + Tween-80) was 114 % of control; the T/C (endpoint: mean survival time, dose: 4.0 mg/kg/injection, schedule: Q01DX009 (ip), vehicle: distilled water + Tween-80) is 112 % of control; the T/C (endpoint: mean survival time, dose: 8.0 mg/kg/injection, schedule: Q01DX009 (ip), vehicle: distilled water + Tween-80) is 108 % of control and 110 % of control; the T/C (endpoint: mean survival time, dose: 12.5 mg/kg/injection, schedule: Q01DX005 (ip), vehicle: saline) was 166 % of control; the T/C (endpoint: mean survival time, dose: 25.0 mg/kg/injection, schedule: Q01DX005 (ip), vehicle: saline) was 175 % of control; the T/C (endpoint: mean survival time, dose: 50.0 mg/kg/injection, schedule: Q01DX005 (ip), vehicle: saline) is 176 % of control. Further, under “endpoint: mean survival time, dose: 64.0 mg/kg/injection, schedule: Q01DX009 (ip), vehicle: distilled water + Tween-80”, the T/C was 98 % of control.

Turning to `CN(C)N=C1CCC2(CC1)c1ccccc1-c1ccccc12`, the T/C was 88 % of control under setting [8] and 87 % of control under setting [9].

In the case of `Nc1nc(=O)n(CCCOc2cccc([N+](=O)[O-])c2)cc1-c1ccccc1`, the T/C reads like this: under setting [7], 96 % of control; under setting [8], 87 % of control; under setting [9], 87 % of control.

Consider `CN(C)C(=O)Sc1ccc(N(C)C)cc1`, for which the T/C by setting is: under setting [14], 107 % of control; under setting [15], 107 % of control.

For `CN(C)S(=O)(=O)c1ccccc1C(O)(c1ccccc1)c1ccccc1`, the T/C is 103 % of control under setting [1]; 104 % of control under setting [2]; 94 % of control under setting [3]; 101 % of control under setting [4]; 101 % of control under setting [5]; 98 % of control under setting [6].

Consider `O=NN(CCCCl)C(=O)Nc1ccccc1`, for which the T/C (endpoint: mean survival time, dose: 100.0 mg/kg/injection, schedule: Q01DX001 (ip), vehicle: carboxymethylcellulose (CMC)) is 96 % of control and the T/C (endpoint: mean survival time, dose: 200.0 mg/kg/injection, schedule: Q01DX001 (ip), vehicle: carboxymethylcellulose (CMC)) was 119 % of control.

For the molecule `O=C(Sc1nc2ccccc2s1)c1ccccc1`, the T/C was 95 % of control under setting [10], 97 % of control under setting [11] and 115 % of control under setting [12].

As for `CCCCCCCCCCCCCCCCSSCCCCCCCCCCCCCCCC`, the T/C was 88 % of control under setting [2], 88 % of control under setting [4] and 92 % of control under setting [6].
